We go through 38 compounds from ChEMBL document CHEMBL1268940, “Synthesis and anticancer evaluation of thiazolyl-chalcones” (Bioorg Med Chem Lett, 2010).

One test relates to BGC-823. The test can be described thus: Cytotoxicity against human BGC823 cells by MTT assay. In kind it is functional, cell-based. In general terms: Tetrazolium assays rely on reduction of a dye to a coloured formazan, in cell work by metabolically active cells.
The next test concerns Bel-7402. Description: Cytotoxicity against human Bel7402 cells by MTT assay. It is filed as functional, cell-based.
A further test relates to NCI-H460. The test can be described thus: Cytotoxicity against human NCI-H460 cells by MTT assay. In kind it is functional, cell-based.
The next test deals with PC-3. Description: Cytotoxicity against human PC3 cells by MTT assay. It is filed as functional, cell-based.
Test [1] relates to CCRF S-180. The test can be described thus: Anticancer activity against mouse S180 cells xenografted in ICR mouse assessed as tumor weight inhibition at 100 mg/kg, ip relative to control. Conditions: CCRF S-180, ip, read-out: INH.
The test system of test [2] is CCRF S-180. Description: Anticancer activity against mouse S180 cells xenografted in ICR mouse assessed as tumor weight inhibition at 25 mg/kg, ip relative to control. Conditions: CCRF S-180, ip, route intraperitoneal. It is filed as functional.
Test [3] relates to CCRF S-180. The test can be described thus: Anticancer activity against mouse S180 cells xenografted in ICR mouse assessed as tumor weight inhibition at 50 mg/kg, ip relative to control. It is filed as functional. Conditions: CCRF S-180, ip, route intraperitoneal.

A value given as a limit tells only on which side of the number the result lay.

As for `COc1cc(/C=C/C(=O)c2sc(Nc3ccccc3)nc2C)cc(OC)c1OC`, the IC50 with BGC-823, in the test on Bel-7402, in the test with NCI-H460 and in the test with PC-3 was more than 25 µM throughout.

For the compound `COc1cccc(/C=C/C(=O)c2sc(Nc3ccc(Cl)c(Cl)c3)nc2C)c1`, the IC50 (commonly the point on the concentration scale where inhibition reaches its midpoint) is 8.35 µM with BGC-823, more than 25 µM in the test with Bel-7402, 20.1 µM with NCI-H460 and 10.1 µM in the test with PC-3.

Regarding `Cc1nc(Nc2ccc(Cl)c(Cl)c2)sc1C(=O)/C=C/c1ccccc1`, the IC50 came out at 10.6 µM with BGC-823, 21.5 µM in the test with Bel-7402, 22.7 µM in the test on NCI-H460 and 7.99 µM with PC-3.

For the compound `Cc1cccc(Nc2nc(C)c(C(=O)/C=C/c3ccccc3)s2)c1`, the IC50 is 13.6 µM in the test on BGC-823, more than 25 µM in the test on Bel-7402, 21.8 µM in the test on NCI-H460 and 11.7 µM with PC-3.

In the case of `COc1ccc(/C=C/C(=O)c2sc(Nc3ccc(Cl)c(Cl)c3)nc2C)cc1`, the IC50 in the test on BGC-823, with Bel-7402, in the test with NCI-H460 and in the test with PC-3 was more than 25 µM throughout.

In the case of `Cc1nc(Nc2cccc(Cl)c2)sc1C(=O)/C=C/c1ccc(Cl)cc1`, the IC50 in the test on BGC-823, in the test with Bel-7402, in the test with NCI-H460 and with PC-3 was more than 25 µM throughout.

With `Cc1nc(Nc2ccc(Cl)c(Cl)c2)sc1C(=O)/C=C/c1ccc2c(c1)OCO2`, the IC50 with BGC-823, in the test with Bel-7402, with NCI-H460 and in the test with PC-3 was more than 25 µM throughout.

In the case of `O=P1(N(CCCl)CCCl)NCCCO1` (centres undefined) [CYCLOPHOSPHAMIDE ANHYDROUS], in the test with CCRF S-180 [1], the inhibition in vivo at 100 mg/kg came to 91.7%.

For `COc1cccc(/C=C/C(=O)c2sc(Nc3ccc(C)cc3)nc2C)c1`, the IC50 in the test on BGC-823, in the test on Bel-7402, in the test on NCI-H460 and in the test on PC-3 was more than 25 µM in each case.

For `COc1cc(/C=C/C(=O)c2sc(Nc3ccc(C)cc3)nc2C)cc(OC)c1OC`, the IC50 in the test with BGC-823, in the test with Bel-7402, in the test with NCI-H460 and in the test with PC-3 was more than 25 µM each time.

With `Cc1nc(Nc2ccc(Cl)cc2)sc1C(=O)/C=C/c1ccccc1`, the IC50 in the test on BGC-823 is more than 25 µM; in the test on Bel-7402, more than 25 µM; in the test with NCI-H460, more than 25 µM; in the test on PC-3 it was 24.6 µM.

Regarding `COc1ccc(/C=C/C(=O)c2sc(Nc3ccc(Cl)cc3)nc2C)cc1`, the IC50 in the test on BGC-823, with Bel-7402, in the test with NCI-H460 and in the test with PC-3 was more than 25 µM each time.

Turning to `COc1cccc(/C=C/C(=O)c2sc(Nc3ccccc3)nc2C)c1`, the IC50 in the test on BGC-823 was 14.3 µM; in the test on Bel-7402 it was more than 25 µM; in the test with NCI-H460 it was more than 25 µM; with PC-3 it was more than 25 µM.

For `Cc1ccccc1Nc1nc(C)c(C(=O)/C=C/c2ccccc2)s1`, the IC50 in the test with BGC-823, in the test on Bel-7402, in the test with NCI-H460 and in the test on PC-3 was more than 25 µM throughout.

Regarding `Cc1ccc(Nc2nc(C)c(C(=O)/C=C/c3ccc(Cl)cc3)s2)cc1`, the IC50 in the test on BGC-823, with Bel-7402, in the test on NCI-H460 and in the test with PC-3 was more than 25 µM each time.

As for `COc1cc(/C=C/C(=O)c2sc(Nc3ccc(F)c(Cl)c3)nc2C)cc(OC)c1OC`, the IC50 was 9.7 µM in the test on BGC-823 and 6.31 µM in the test with NCI-H460. The inhibition in vivo at 25 mg/kg in the test with CCRF S-180 [2] was found to be 23%. The inhibition in vivo at 50 mg/kg in the test with CCRF S-180 [3] is 22.6%.

Take `Cc1cccc(Nc2nc(C)c(C(=O)/C=C/c3ccccc3Cl)s2)c1`: the IC50 in the test on BGC-823 was 24.2 µM; with Bel-7402 it was more than 25 µM; with NCI-H460, more than 25 µM; with PC-3 it was 22.2 µM.

For the compound `COc1cccc(/C=C/C(=O)c2sc(Nc3cccc(C)c3)nc2C)c1`, the IC50 with BGC-823, with Bel-7402, with NCI-H460 and with PC-3 was more than 25 µM throughout.

As for `Cc1nc(Nc2cccc(Cl)c2)sc1C(=O)/C=C/c1ccccc1`, the IC50 in the test with BGC-823, in the test on Bel-7402, in the test on NCI-H460 and in the test with PC-3 was more than 25 µM in each case.

As for `COc1cccc(/C=C/C(=O)c2sc(Nc3ccc(Cl)cc3)nc2C)c1`, the IC50 in the test on BGC-823, in the test on Bel-7402, in the test on NCI-H460 and in the test with PC-3 was more than 25 µM throughout.

With `Cc1ccc(Nc2nc(C)c(C(=O)/C=C/c3ccccc3)s2)cc1`, the IC50 in the test with BGC-823, in the test with Bel-7402, with NCI-H460 and in the test with PC-3 was more than 25 µM in each case.

`Cc1ccc(Nc2nc(C)c(C(=O)/C=C/c3ccccc3Cl)s2)cc1`: the IC50 in the test on BGC-823, in the test with Bel-7402, with NCI-H460 and with PC-3 was more than 25 µM each time.

In the case of `COc1cc(/C=C/C(=O)c2sc(Nc3cccc(Cl)c3)nc2C)cc(OC)c1OC`, the IC50 with BGC-823 is 11.6 µM; in the test with Bel-7402 it was 14 µM; in the test on NCI-H460, more than 25 µM; with PC-3, more than 25 µM.

As for `COc1cc(/C=C/C(=O)c2sc(Nc3ccc(Cl)cc3)nc2C)cc(OC)c1OC`, the IC50 with BGC-823 was more than 25 µM; with Bel-7402, more than 25 µM; in the test with NCI-H460 it was 22 µM; with PC-3, more than 25 µM.

On to `Cc1nc(Nc2ccc(Cl)cc2)sc1C(=O)/C=C/c1ccc(Cl)cc1`, for which the IC50 in the test on BGC-823, in the test on Bel-7402, with NCI-H460 and in the test with PC-3 was more than 25 µM throughout.

As to `Cc1nc(Nc2ccccc2)sc1C(=O)/C=C/c1ccc(Cl)cc1`, the IC50 in the test on BGC-823, in the test on Bel-7402, in the test on NCI-H460 and in the test on PC-3 was more than 25 µM throughout.

On to `Cc1cccc(Nc2nc(C)c(C(=O)/C=C/c3ccc(Cl)cc3)s2)c1`, for which the IC50 in the test on BGC-823, in the test with Bel-7402, in the test with NCI-H460 and in the test on PC-3 was more than 25 µM throughout.

Regarding `COc1cc(/C=C/C(=O)c2sc(Nc3ccc(Cl)c(Cl)c3)nc2C)cc(OC)c1OC`, the IC50 with BGC-823 is more than 25 µM; in the test with Bel-7402 it was more than 25 µM; in the test with NCI-H460 it was more than 25 µM; in the test with PC-3 it was 19.3 µM. In addition, the inhibition in vivo at 50 mg/kg in the test with CCRF S-180 [3] stood at 25.1%.

Turning to `Cc1nc(Nc2ccccc2)sc1C(=O)/C=C/c1ccccc1Cl`, the IC50 with BGC-823 was 22.8 µM; in the test with Bel-7402, more than 25 µM; in the test with NCI-H460, more than 25 µM; in the test on PC-3 it was more than 25 µM.

As to `COc1cc(/C=C/C(=O)c2sc(Nc3ccccc3C)nc2C)cc(OC)c1OC`, the IC50 in the test with BGC-823 was 5.4 µM; in the test on Bel-7402, 10.3 µM; in the test with NCI-H460 it was 6.32 µM; with PC-3, more than 25 µM.

For `Cc1nc(Nc2ccccc2)sc1C(=O)/C=C/c1ccccc1`, the IC50 in the test on BGC-823 is 19.5 µM; with Bel-7402 it was more than 25 µM; with NCI-H460 it was more than 25 µM; in the test on PC-3 it was more than 25 µM.

Consider `Cc1ccccc1Nc1nc(C)c(C(=O)/C=C/c2ccc(Cl)cc2)s1`, for which the IC50 in the test on BGC-823, with Bel-7402, in the test on NCI-H460 and with PC-3 was more than 25 µM in each case.

For the compound `Cc1ccccc1Nc1nc(C)c(C(=O)/C=C/c2ccccc2Cl)s1`, the IC50 in the test with BGC-823, with Bel-7402, in the test on NCI-H460 and in the test with PC-3 was more than 25 µM each time.

`COc1cccc(/C=C/C(=O)c2sc(Nc3cccc(Cl)c3)nc2C)c1`: the IC50 in the test on Bel-7402, in the test on NCI-H460 and in the test with PC-3 was more than 25 µM throughout.

On to `Cc1ccc(Nc2nc(C)c(C(=O)/C=C/c3ccc4c(c3)OCO4)s2)cc1`, for which the IC50 with BGC-823, with Bel-7402, in the test on NCI-H460 and in the test with PC-3 was more than 25 µM each time.

`COc1cccc(/C=C/C(=O)c2sc(Nc3ccccc3C)nc2C)c1`: the IC50 in the test on BGC-823, with Bel-7402, in the test with NCI-H460 and in the test on PC-3 was more than 25 µM throughout.

With `Cc1nc(Nc2ccc(Cl)c(Cl)c2)sc1C(=O)/C=C/c1ccc(Cl)cc1`, the IC50 was 22.7 µM in the test on BGC-823, more than 25 µM in the test on Bel-7402, more than 25 µM in the test with NCI-H460 and more than 25 µM in the test on PC-3.

Turning to `COc1cc(/C=C/C(=O)c2sc(Nc3cccc(C)c3)nc2C)cc(OC)c1OC`, the concentration for half-maximal inhibition (IC50) in the test on BGC-823 is 17.2 µM; with Bel-7402, more than 25 µM; in the test with NCI-H460, 19.8 µM; in the test with PC-3, more than 25 µM.
